Values after ≈ are worked out from the molar mass of the structure shown.
How the values were obtained:
Escherichia coli [1] = experiment: Compound was tested in vitro for its minimum inhibitory concentration by serial 2-fold agar dilution Muller Hinton method against Escherichia coli O 55; type: functional
Pseudomonas aeruginosa [2] = experiment: Compound was tested in vitro for its minimum inhibitory concentration by serial 2-fold agar dilution Muller Hinton method against Pseudomonas aeruginosa 9027; type: functional
Streptococcus pyogenes [3] = experiment: Compound was tested in vitro for its minimum inhibitory concentration by serial 2-fold agar dilution Muller Hinton method against Streptococcus pyogenes A 308; type: functional
Klebsiella aerogenes = experiment: Compound was tested in vitro for its minimum inhibitory concentration by serial 2-fold agar dilution Muller Hinton method against Klebsiella aerogenes 1522 E; type: functional
Escherichia coli [4] = experiment: Compound was tested in vitro for its minimum inhibitory concentration by serial 2-fold agar dilution Muller Hinton method against Escherichia coli 1507E; type: functional
Pseudomonas aeruginosa [5] = experiment: Compound was tested in vitro for its minimum inhibitory concentration by serial 2-fold agar dilution Muller Hinton method against Pseudomonas aeruginosa 1771 M; type: functional
Pseudomonas aeruginosa [6] = experiment: Compound was tested in vitro for its minimum inhibitory concentration by serial 2-fold agar dilution Muller Hinton method against Pseudomonas aeruginosa 1771; type: functional
Staphylococcus aureus [7] = experiment: Compound was tested in vitro for its minimum inhibitory concentration by serial 2-fold agar dilution Muller Hinton method against Staphylococcus aureus 503; type: functional
Escherichia coli [8] = experiment: Compound was tested in vitro for its minimum inhibitory concentration by serial 2-fold agar dilution Muller Hinton method against Escherichia coli DC 0; type: functional
Enterobacter cloacae [9] = experiment: Compound was tested in vitro for its minimum inhibitory concentration by serial 2-fold agar dilution Muller Hinton method against Enterobacter cloacae P99; type: functional
Enterobacter cloacae [10] = experiment: Compound was tested in vitro for its minimum inhibitory concentration by serial 2-fold agar dilution Muller Hinton method against Enterobacter cloacae 1321; type: functional
Klebsiella oxytoca = experiment: Compound was tested in vitro for its minimum inhibitory concentration by serial 2-fold agar dilution Muller Hinton method against Klebsiella oxytoca 1082 E; type: functional
Escherichia coli [11] = experiment: Compound was tested in vitro for its minimum inhibitory concentration by serial 2-fold agar dilution Muller Hinton method against Escherichia coli TEM; type: functional
Escherichia coli [12] = experiment: Compound was tested in vitro for its minimum inhibitory concentration by serial 2-fold agar dilution Muller Hinton method against Escherichia coli DC 2; type: functional
Salmonella typhimurium = experiment: Compound was tested in vitro for its minimum inhibitory concentration by serial 2-fold agar dilution Muller Hinton method against Salmonella Typhimurium; type: functional, Salmonella enterica subsp. enterica serovar Typhimurium; conditions: Salmonella enterica
Staphylococcus aureus [13] = experiment: Compound was tested in vitro for its minimum inhibitory concentration by serial 2-fold agar dilution Muller Hinton method against Staphylococcus aureus 285; type: functional
Streptococcus pyogenes [14] = experiment: Compound was tested in vitro for its minimum inhibitory concentration by serial 2-fold agar dilution Muller Hinton method against Streptococcus pyogenes 8b; type: functional
Streptococcus pyogenes [15] = experiment: Compound was tested in vitro for its minimum inhibitory concentration by serial 2-fold agar dilution Muller Hinton method against Streptococcus pyogenes A77; type: functional
Pseudomonas aeruginosa [16] = experiment: Compound was tested in vitro for its minimum inhibitory concentration by serial 2-fold agar dilution Muller Hinton method against Pseudomonas aeruginosa 1592 E; type: functional
Staphylococcus aureus [17] = experiment: Compound was tested in vitro for its minimum inhibitory concentration by serial 2-fold agar dilution Muller Hinton method against Staphylococcus aureus SG511; type: functional

MIC (Escherichia coli [1])	MIC (Pseudomonas aeruginosa [2])	MIC (Streptococcus pyogenes [3])	MIC (Klebsiella aerogenes)	MIC (Escherichia coli [4])	MIC (Pseudomonas aeruginosa [5])	MIC (Pseudomonas aeruginosa [6])	MIC (Staphylococcus aureus [7])	MIC (Escherichia coli [8])	MIC (Enterobacter cloacae [9])	MIC (Enterobacter cloacae [10])	MIC (Klebsiella oxytoca)	MIC (Escherichia coli [11])	MIC (Escherichia coli [12])	MIC (Salmonella typhimurium)	MIC (Staphylococcus aureus [13])	MIC (Streptococcus pyogenes [14])	MIC (Streptococcus pyogenes [15])	MIC (Pseudomonas aeruginosa [16])	MIC (Staphylococcus aureus [17])	SMILES
0.049 µg/mL (≈ 0.0828 µM)	25 µg/mL (≈ 42.2 µM)	0.013 µg/mL (≈ 0.022 µM)	0.098 µg/mL (≈ 0.166 µM)	0.195 µg/mL (≈ 0.33 µM)	0.391 µg/mL (≈ 0.661 µM)	6.25 µg/mL (≈ 10.6 µM)	0.195 µg/mL (≈ 0.33 µM)	0.098 µg/mL (≈ 0.166 µM)	6.25 µg/mL (≈ 10.6 µM)	0.049 µg/mL (≈ 0.0828 µM)	3.12 µg/mL (≈ 5.28 µM)	0.195 µg/mL (≈ 0.33 µM)	0.025 µg/mL (≈ 0.0422 µM)	0.098 µg/mL (≈ 0.166 µM)	0.781 µg/mL (≈ 1.32 µM)	25 µg/mL (≈ 42.2 µM)	0.007 µg/mL (≈ 0.0118 µM)	25 µg/mL (≈ 42.2 µM)	0.391 µg/mL (≈ 0.661 µM)	CCO/N=C(\C(=O)NC1C(=O)N2C(C(=O)[O-])=C(CN(C)c3sc4c([n+]3C)CCCC4)CSC12)c1csc(N)n1 (stereo not given)
0.049 µg/mL (≈ 0.0812 µM)	50 µg/mL (≈ 82.8 µM)	0.004 µg/mL (≈ 0.00663 µM)	0.195 µg/mL (≈ 0.323 µM)	0.391 µg/mL (≈ 0.648 µM)	0.781 µg/mL (≈ 1.29 µM)	6.25 µg/mL (≈ 10.4 µM)	0.195 µg/mL (≈ 0.323 µM)	0.391 µg/mL (≈ 0.648 µM)	12.5 µg/mL (≈ 20.7 µM)	0.049 µg/mL (≈ 0.0812 µM)	6.25 µg/mL (≈ 10.4 µM)	0.391 µg/mL (≈ 0.648 µM)	0.025 µg/mL (≈ 0.0414 µM)	0.195 µg/mL (≈ 0.323 µM)	0.781 µg/mL (≈ 1.29 µM)	50 µg/mL (≈ 82.8 µM)	0.004 µg/mL (≈ 0.00663 µM)	50 µg/mL (≈ 82.8 µM)	0.391 µg/mL (≈ 0.648 µM)	C=CCO/N=C(\C(=O)NC1C(=O)N2C(C(=O)[O-])=C(CN(C)c3sc4c([n+]3C)CCCC4)CSC12)c1csc(N)n1 (stereo not given)
0.025 µg/mL (≈ 0.0431 µM)	50 µg/mL (≈ 86.1 µM)	0.007 µg/mL (≈ 0.0121 µM)	0.025 µg/mL (≈ 0.0431 µM)	0.049 µg/mL (≈ 0.0844 µM)	0.781 µg/mL (≈ 1.34 µM)	6.25 µg/mL (≈ 10.8 µM)	0.195 µg/mL (≈ 0.336 µM)	0.049 µg/mL (≈ 0.0844 µM)	6.25 µg/mL (≈ 10.8 µM)	0.013 µg/mL (≈ 0.0224 µM)	3.12 µg/mL (≈ 5.38 µM)	0.049 µg/mL (≈ 0.0844 µM)	0.025 µg/mL (≈ 0.0431 µM)	0.049 µg/mL (≈ 0.0844 µM)	0.781 µg/mL (≈ 1.34 µM)	12.5 µg/mL (≈ 21.5 µM)	0.007 µg/mL (≈ 0.0121 µM)	25 µg/mL (≈ 43.1 µM)	0.391 µg/mL (≈ 0.673 µM)	CO/N=C(\C(=O)NC1C(=O)N2C(C(=O)[O-])=C(CN(C)c3sc(C(N)=O)c(C)[n+]3C)CSC12)c1csc(N)n1 (stereo not given)
0.049 µg/mL (≈ 0.0804 µM)	100 µg/mL (≈ 164 µM)	0.007 µg/mL (≈ 0.0115 µM)	0.049 µg/mL (≈ 0.0804 µM)	0.098 µg/mL (≈ 0.161 µM)	1.56 µg/mL (≈ 2.56 µM)	25 µg/mL (≈ 41 µM)	0.781 µg/mL (≈ 1.28 µM)	0.098 µg/mL (≈ 0.161 µM)	3.12 µg/mL (≈ 5.13 µM)	0.025 µg/mL (≈ 0.041 µM)	6.25 µg/mL (≈ 10.3 µM)	0.195 µg/mL (≈ 0.32 µM)	0.049 µg/mL (≈ 0.0804 µM)	0.049 µg/mL (≈ 0.0804 µM)	1.56 µg/mL (≈ 2.56 µM)	25 µg/mL (≈ 41 µM)	0.004 µg/mL (≈ 0.00656 µM)	50 µg/mL (≈ 82 µM)	1.56 µg/mL (≈ 2.56 µM)	CCOC(=O)c1sc(N(C)CC2=C(C(=O)[O-])N3C(=O)C(NC(=O)/C(=N\OC)c4csc(N)n4)C3SC2)[n+](C)c1C (stereo not given)
0.025 µg/mL (≈ 0.0477 µM)	50 µg/mL (≈ 95.5 µM)	0.007 µg/mL (≈ 0.0134 µM)	0.098 µg/mL (≈ 0.187 µM)	0.098 µg/mL (≈ 0.187 µM)	1.56 µg/mL (≈ 2.98 µM)	25 µg/mL (≈ 47.7 µM)	0.391 µg/mL (≈ 0.747 µM)	0.098 µg/mL (≈ 0.187 µM)	50 µg/mL (≈ 95.5 µM)	0.049 µg/mL (≈ 0.0936 µM)	25 µg/mL (≈ 47.7 µM)	0.098 µg/mL (≈ 0.187 µM)	0.098 µg/mL (≈ 0.187 µM)	0.098 µg/mL (≈ 0.187 µM)	3.12 µg/mL (≈ 5.97 µM)	> 100 µg/mL	0.007 µg/mL (≈ 0.0134 µM)	50 µg/mL (≈ 95.5 µM)	1.56 µg/mL (≈ 2.98 µM)	CO/N=C(\C(=O)NC1C(=O)N2C(C(=O)[O-])=C(CN(C)c3scc[n+]3C)CSC12)c1csc(N)n1 (stereo not given)
0.025 µg/mL (≈ 0.0433 µM)	50 µg/mL (≈ 86.5 µM)	0.007 µg/mL (≈ 0.0121 µM)	0.025 µg/mL (≈ 0.0433 µM)	0.049 µg/mL (≈ 0.0848 µM)	0.781 µg/mL (≈ 1.35 µM)	6.25 µg/mL (≈ 10.8 µM)	0.195 µg/mL (≈ 0.338 µM)	0.049 µg/mL (≈ 0.0848 µM)	6.25 µg/mL (≈ 10.8 µM)	0.013 µg/mL (≈ 0.0225 µM)	3.12 µg/mL (≈ 5.41 µM)	0.049 µg/mL (≈ 0.0848 µM)	0.025 µg/mL (≈ 0.0433 µM)	0.049 µg/mL (≈ 0.0848 µM)	0.781 µg/mL (≈ 1.35 µM)	12.5 µg/mL (≈ 21.6 µM)	0.007 µg/mL (≈ 0.0121 µM)	25 µg/mL (≈ 43.3 µM)	0.391 µg/mL (≈ 0.677 µM)	CO/N=C(\C(=O)NC1C(=O)N2C(C(=O)[O-])=C(CN(C)c3sc4c([n+]3C)CCCC4)CSC12)c1csc(N)n1 (stereo not given)
0.049 µg/mL (≈ 0.0869 µM)	25 µg/mL (≈ 44.4 µM)	0.013 µg/mL (≈ 0.0231 µM)	0.098 µg/mL (≈ 0.174 µM)	0.195 µg/mL (≈ 0.346 µM)	0.195 µg/mL (≈ 0.346 µM)	6.25 µg/mL (≈ 11.1 µM)	0.195 µg/mL (≈ 0.346 µM)	0.195 µg/mL (≈ 0.346 µM)	25 µg/mL (≈ 44.4 µM)	0.098 µg/mL (≈ 0.174 µM)	12.5 µg/mL (≈ 22.2 µM)	0.195 µg/mL (≈ 0.346 µM)	0.025 µg/mL (≈ 0.0444 µM)	0.098 µg/mL (≈ 0.174 µM)	0.781 µg/mL (≈ 1.39 µM)	25 µg/mL (≈ 44.4 µM)	0.007 µg/mL (≈ 0.0124 µM)	12.5 µg/mL (≈ 22.2 µM)	0.391 µg/mL (≈ 0.694 µM)	C=CCO/N=C(\C(=O)NC1C(=O)N2C(C(=O)[O-])=C(CN(C)c3scc(C)[n+]3C)CSC12)c1csc(N)n1 (stereo not given)
